Experimental data from patent publication US20180344725A1, “QUINOLONE CHALCONE COMPOUNDS AND USES THEREOF” (priority 2015, published 2018).

Assays:
MCF-10A = assay: SRB-based cytotoxicity assay; format: cell-based; conditions: for IC50: Homo sapiens; for Cell survival rate: MCF10A, 0.39 μM
Method: (§1) For (anti)proliferation assays, 4,000-5,000 cells/well of the 96-well clustered dish were incubated for 16 hours, as described previously (Hu et al., 2008; Skehan et al., 1990). After 16 hours, culture medium was replaced with fresh medium containing different dilutions of test compounds dissolved in DMSO. Some wells were treated with 100 μl of 10% trichloroacetic acid (TCA) as a negative control and sham (medium with dimethyl sulfoxide; DMSO) treated cells were used as a positive control. After 72 hours post-incubation, medium was removed and cells were fixed with 10% TCA at 4° C. for 1 hour. TCA was removed and cells were washed with cold tap water, and plate was air-dried, followed by addition of 50 μl of 0.4% SRB staining solution to each well. After 30 minutes incubation, SRB staining solution was removed. Cells were washed with 1% acetic acid solution, and then washed with tap water to remove unbound staining solution, followed by air-drying. 200 μl of 10 mM (pH10.5) trizma base buffer was added to each well to solubilise macromolecules. SRB stained macromolecules were determined at a 540 nm wavelength using an automated plate reader (Synergy H4 Hybrid Multi-Mode Microplate Reader, BioTek, Winooski, Vt.). Cell growth (inhibition) was calculated by the following formula:
(§2) % cells proliferation=[(AT−CT)/(ST−CT)]×100
(§3) wherein AT=absorbance of treated cells, CT=absorbance of negative control cells, and ST=absorbance of sham treated cells. IC50 values were calculated from sigmoidal dose-response curves generated by two independent biological replicates, with quadruplicate in each set by using Graph Pad Prism v.5.04 software. […] The combinational index (CI) was calculated as described previously (Chou 2006). If the CI values were less than, equal to or more than 1, it indicates a synergistic, additive or antagonistic effect respectively (Chou 2006). CI values were determined from four independent experiments.

HeLa = assay: SRB-based cytotoxicity assay; format: cell-based; conditions: for IC50: HeLa
Method: as §1, §2, §3

184B5 = assay: SRB-based cytotoxicity assay; format: cell-based; conditions: Homo sapiens, 184B5 non-cancer
Method: as §1, §2, §3

RPMI-8226 (myeloma) = assay: SRB-based cytotoxicity assay; format: cell-based; conditions: 72 hours
Method: as §1, §2, §3

purified porcine tubulin = assay: Microtubule polymerization assay; format: biochemical; conditions: 1.0 mM GTP, 1 hour at 37° C.
Method: The effects of the tested CTR compounds of the present disclosure on the assembly of purified tubulin were determined using a tubulin polymerization kit according to the manufacturer's instructions (Cytoskeleton Inc., Denver, Colo.). Paclitaxel (provided in the same kit), nocodazole, and colchicine (Santa Cruz, Calif.) were used as controls for the assay. The absorbent-based assay kit is based on the principle that the light scattered by the microtubules is directly proportional to the polymer mass of the microtubules when measured at 37° C. at a wavelength of 340 nm. The fluorescence-based assay kit is on the principle that fluorescent reporter molecules are incorporated into microtubules as the polymerization process being occurred. The fluorescence enhancement was measured for one hour at one-minute intervals, at the excitation of 350 nm and the emission of 430 nm. Absorbance or fluorescence was measured with an automated plate reader (Synergy H4 Hybrid Multi-Mode Microplate Reader, Bio-Tek).

[1] = MCF-10A, MCF10A non-cancer, 72 hours, Table 4
[2] = MCF-10A non-cancer, SRB, Table 2

Row | Structure (SMILES) | IC50 (MCF-10A; [1]) [nM] | IC50 (HeLa; 72 hours, Table 4) [nM] | IC50 (184B5; 72 hours, Table 4) [nM] | IC50 (RPMI-8226 (myeloma); Table 4) [nM] | effect on tubulin/microtubule polymerization (purified porcine tubulin) | IC50 (MCF-10A; [2]) [nM] | Cell survival rate (MCF-10A; 72 hours) [%] | IC50 (HeLa; Homo sapiens, SRB, Table 2) [nM] | IC50 (184B5; SRB, Table 2) [nM] | IC50 (RPMI-8226 (myeloma); Homo sapiens) [nM] | preferentially kill cancer over non-cancer cells (HeLa; HeLa versus MCF-10A) [times]
1 | COc1ccccc1C(=O)/C=C/c1cc2cccc(OC)c2[nH]c1=O [CTR-21, (E)-8-methoxy-3-(3-(2-methoxyphenyl)-3-oxoprop-1-enyl) quinolin-2(1H)-one] | 20.3 ± 2.47 | 11.9 ± 1.4 | 37 ± 2.5 | 5.34 ± 0.89 | microtubule polymerization inhibitors |  |  |  |  |  | 
2 | CCOc1ccccc1C(=O)/C=C/c1cc2ccccc2[nH]c1=O [CTR-32, (E)-3-(3-(2-ethoxyphenyl)-3-oxoprop-1-enyl)quinolin-2(1H)-one] | 30.1 ± 1.61 | 12.9 ± 0.35 | 52 ± 7.35 | 6.29 ± 1.43 | microtubule polymerization inhibitors |  |  |  |  |  | 
3 | COc1ccccc1C(=O)/C=C/c1cc2ccccc2[nH]c1=O [CTR-17, (E)-3-(3-(2-Methoxyphenyl)-3-oxoprop-1-enyl)quinolin-2(1H)-one] |  |  |  |  | inhibited tubulin polymerization | 3950 ± 140 | 95 | 330 ± 60 | 3490 ± 30 | 360 ± 40 | 
4 | COc1ccc2[nH]c(=O)c(/C=C/C(=O)c3ccccc3OC)cc2c1 [CTR-20, (E)-6-Methoxy-3-(3-(2-methoxyphenyl)-3-oxoprop-1-enyl) quinolin-2(1H)-one] |  |  |  |  | inhibited tubulin polymerization | 2370 ± 210 | 75 | 100 ± 20 | 1240 ± 60 | 230 | ≤ 24
